± gives the expanded uncertainty stated by the source.
Assay: molar heat capacity at constant pressure
Settings: Gas, Flow calorimetry

CC(F)(F)F [1,1,1-trifluoroethane]
Settings	molar heat capacity at constant pressure [J/K/mol]
311.15 K, 1600 kPa	120.18 ± 1.7
317.15 K, 1800 kPa	125.89 ± 2.9
318.15 K, 1600 kPa	111.77 ± 2.5
318.15 K, 2000 kPa	139.51 ± 3.1
324.15 K, 2200 kPa	145.31 ± 3.2
326.15 K, 2400 kPa	161.69 ± 4.3
327.15 K, 2400 kPa	160.77 ± 2.4
338.15 K, 2400 kPa	130.6 ± 5.4
341.15 K, 2200 kPa	117.24 ± 3.7
343.15 K, 2400 kPa	124.8 ± 3.5
